According to PubChem BioAssay (NCI):
Where “and” joins values, the source holds several entries; their conditions need not be identical. Equal entries are not always repeated.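 Each compound was tested at five concentrations against cells in 96-well plates for 48 hours. GI50 is the concentration that inhibits growth by half. TGI denotes the concentration required for complete inhibition of growth.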

Tests used:
Assay in all cases: growth of human tumour cells (NCI), 48 h
SF-295 CNS = tested on: SF-295 CNS
SR leukemia = tested on: SR leukemia
HS 578T breast = tested on: HS 578T breast
T-47D breast = tested on: T-47D breast
HOP-92 NSCLC = tested on: HOP-92 NSCLC
NCI-H522 lung = tested on: NCI-H522 lung
KM20L2 colon = tested on: KM20L2 colon
DMS 114 small cell lung = tested on: DMS 114 small cell lung
LXFL 529 NSCLC = tested on: LXFL 529 NSCLC
HOP-18 NSCLC = tested on: HOP-18 NSCLC

| SMILES | TGI (SF-295 CNS) | TGI (SR leukemia) | TGI (HS 578T breast) | TGI (T-47D breast) | TGI (HOP-92 NSCLC) | TGI (NCI-H522 lung) | TGI (KM20L2 colon) | TGI (DMS 114 small cell lung) | TGI (LXFL 529 NSCLC) | TGI (HOP-18 NSCLC) | GI50 (NCI-H522 lung) | GI50 (HOP-18 NSCLC) |
| --- | --- | --- | --- | --- | --- | --- | --- | --- | --- | --- | --- | --- |
| Cc1c(C)c2c(c(N)c1C#N)C(=O)N(O)C2=O | > 100 µM | > 100 µM | > 100 µM | > 100 µM | > 100 µM | > 100 µM |  |  |  |  |  |  |
| O=C(NCCN1CCCCC1)c1ccc(Br)cc1 | > 100 µM | > 100 µM | > 100 µM | > 100 µM | > 100 µM | > 100 µM |  |  |  |  |  |  |
| CCOC(=O)c1c[nH]c(C(=O)OCC)c1-c1cccn1-c1ccccc1 | 52.3 µM |  | 59 µM | > 100 µM | > 100 µM | 55.4 µM |  |  |  |  |  |  |
| Nc1nc(NNc2cccc(F)c2)cc(=O)[nH]1 | > 100 µM | > 100 µM | > 100 µM |  |  |  |  |  |  |  |  |  |
| O=C(O)c1nc2ccccc2nc1Nc1ccc(Cl)c(Cl)c1 | 69.8 µM | > 100 µM |  | 72.1 µM | 59 µM | 60.1 µM |  |  |  |  |  |  |
| CC1(C)C2CCC3CC(CCC#N)CCC3C21C#N (stereo not given) | > 100 µM | > 100 µM | > 100 µM | > 100 µM | > 100 µM | > 100 µM |  |  |  |  |  |  |
| O=C1NC2NC3NC(=O)NC3NC2N1 (stereo not given) | > 100 µM | > 100 µM |  |  | > 100 µM | > 100 µM |  |  |  |  |  |  |
| COc1nc(N=P(c2ccccc2)(c2ccccc2)c2ccccc2)cc(=O)n1C | > 100 µM | > 100 µM | > 100 µM | > 100 µM | > 100 µM | > 100 µM |  |  |  |  |  |  |
| CCOc1ccccc1N=Nc1ccc2oc(=O)c(C(C)=O)cc2c1 | > 100 µM |  |  |  |  | > 100 µM | > 100 µM | > 100 µM | > 100 µM |  |  |  |
| CCCCOCCOCCOC1=CC(=O)c2c(O)ccc(O)c2C1=O | 3.06 µM | > 10 µM | 6.5 µM | 6.16 µM | 6.28 µM | 2.99 µM |  |  |  |  |  |  |
| COc1ccccc1NC(=O)C1=C(C)NC(C)=C(C(=O)Nc2ccccc2OC)C1c1ccccc1[N+](=O)[O-] | > 100 µM | 39.6 µM |  |  | 59.5 µM | 26.8 µM |  | 31.2 µM | 25 µM | > 100 µM |  |  |
| COC(=O)C1CC2C=CC=CC(=O)C2(C)C1 (stereo not given) | > 100 µM | 76.5 µM |  |  |  |  | > 100 µM | > 100 µM | > 100 µM |  |  |  |
| CN(C)c1ccc(/C=C/C(=O)c2ccc(O)cc2)cc1 | > 41.6 µM | 3.02 µM | > 69.7 µM | 57.6 µM | > 100 µM | 8.58 µM |  |  |  |  |  |  |
| COC(=O)c1ccc2c(c1)CC1(C2)Cc2cc3c(cc2C1)CCC3 | > 100 µM | > 100 µM | > 100 µM | > 100 µM | > 100 µM | > 100 µM |  |  |  |  |  |  |
| O=Cc1c[nH]c2c(=O)[nH]cnc12 | > 100 µM | > 100 µM |  |  | > 100 µM | > 100 µM |  | > 100 µM | > 100 µM | > 100 µM |  |  |
| FC(F)(F)c1ccccc1C1SCC2=Nc3ccccc3CN21 (stereo not given) | 26.2 µM | > 100 µM | 27.4 µM | 38.4 µM | 60.9 µM |  |  |  |  |  |  |  |

| SMILES | TGI (SF-295 CNS) | TGI (SR leukemia) | TGI (HS 578T breast) | TGI (T-47D breast) | TGI (HOP-92 NSCLC) | TGI (NCI-H522 lung) | TGI (KM20L2 colon) | TGI (DMS 114 small cell lung) | TGI (LXFL 529 NSCLC) | TGI (HOP-18 NSCLC) | GI50 (NCI-H522 lung) | GI50 (HOP-18 NSCLC) |
| --- | --- | --- | --- | --- | --- | --- | --- | --- | --- | --- | --- | --- |
| O=c1[nH]/c(=C/c2ccc3c(c2)OCO3)c(=O)[nH]/c1=C/c1ccc2c(c1)OCO2 | > 10 µM |  | > 10 µM | > 10 µM | > 10 µM | > 10 µM |  |  |  |  |  |  |
| COc1ccc(C(O)/C(=N/N)c2nc3ccc(Cl)cc3[nH]c2=O)cc1 (stereo not given) | > 100 µM | > 100 µM | > 100 µM | > 100 µM | > 100 µM | > 100 µM |  |  |  |  |  |  |
| CNC(=O)c1n[nH]n(C2CCCCC2)c1=S | > 100 µM | > 100 µM | > 100 µM | > 100 µM | > 100 µM | > 100 µM |  |  |  |  |  |  |
| Clc1ccc(Nc2nnc(CNc3ccc(-c4nnc(Nc5ccc(Cl)cc5)s4)cc3)s2)cc1 | 84.3 µM |  |  |  | > 100 µM | 43.2 µM |  |  |  |  |  |  |
| O=C/C(=C1/C=Cc2cc([N+](=O)[O-])ccc2S1)c1ccccc1 | > 100 µM | > 100 µM | > 100 µM | > 100 µM | > 100 µM | > 100 µM |  |  |  |  |  |  |
| CC1=NN=C(C)C1N=Nc1ccc2nc(C)[nH]c2c1 | > 75.1 µM | 48.3 µM | 29.4 µM | 54.8 µM | 65.4 µM | > 100 µM |  |  |  |  |  |  |
| COc1cc2ccc3c4ccccc4cnc3c2cc1OC | > 100 µM | > 100 µM |  |  | > 100 µM | > 100 µM | > 100 µM |  | > 100 µM | > 100 µM |  |  |
| CC(C)Oc1c(C2(c3ccccc3)SCCCS2)c(=O)c1=O | > 100 µM |  | > 100 µM | > 100 µM | > 100 µM | 97.3 µM |  |  |  |  |  |  |
| CC1=CC(=O)CC2(C)CCC(C(C)CC(=O)CC(C)C)CC12OO (stereo not given) | 31 µM and 30 µM | 41.5 µM and 41.4 µM | 88.3 µM and > 100 µM |  | 31 µM and 37 µM | 19.5 µM and 26.9 µM |  |  |  |  | 4.8 µM and 12.6 µM |  |
| CC1(C)OC(=O)C(C)(C)C(=O)O1 | > 100 µM | > 100 µM | > 100 µM | > 100 µM |  | > 100 µM |  |  |  |  |  |  |
| O=C1CCN2c3ccccc3[C@H]3Cc4cccc(c4[C@@H]2C3)CCO1 | > 100 µM | 74.6 µM |  | > 100 µM | > 100 µM | > 100 µM |  |  |  |  |  |  |
| Cc1ccc(S(=O)c2cccs2)cc1 (stereo not given) | > 100 µM | > 100 µM |  | > 100 µM | > 100 µM |  |  |  |  |  |  |  |
| CN(C)CCN(C)P12(Oc3ccccc3O1)Oc1c(Cl)c(Cl)c(Cl)c(Cl)c1O2 | > 100 µM | > 100 µM |  | > 100 µM | 92.7 µM |  |  |  |  |  |  |  |
| CC1(C)CCN2C(=O)C34CCCC3CC21S4 (stereo not given) | > 100 µM | > 100 µM | > 100 µM | > 100 µM | > 100 µM | > 100 µM |  |  |  |  |  |  |
| COc1cc2c(c(OC)c1OC)-c1ccc(SC)c(=O)cc1[C@@H](NCc1ccc(F)cc1)CC2 | 22 µM and > 100 µM | 12.8 µM |  |  | 75 µM and 7.99 µM |  | < 0.0075 µM |  | 10.1 µM and 18.2 µM | 51.3 µM and > 100 µM |  | > 100 µM |
| COc1ccc(/C=c2\c(=O)[nH]c3nc4ccccc4c(=O)n23)cc1 | > 100 µM | > 100 µM | > 100 µM | > 100 µM | > 100 µM | > 100 µM |  |  |  |  |  |  |
